From patent US20080194491A1, “Methods of Diagnosing, Preventing, and Treating Early Onset of Pulmonary Hypertension” (priority 2002, published 2008)

Key:
mammary epithelial cells = settings: absence of extracellular matrix; cited from earlier work
lung apoptosis after MCT = assay: Early caspase inhibition after MCT: lung apoptosis by TUNEL assay; assay type: in vivo, Rats
Description: The methods set out in Example 3 were employed. In this set of experiments, the inventors tried to establish the effect of apoptosis inhibitors on the early development of the apoptotic pathways. They blocked the caspase activity at a much earlier time point (18 hours post MCT injection and another injection 24 hours after that) using two classes of caspase inhibitors, namely Z-Asp (2.5 mg/Kg) and Z-VAD (1.5 mg/Kg; see FIG. 10 for details). Rats were sacrificed 24, 48 and 72 hours post last dose of inhibitors/DMSO injection and lungs were collected for histology and activity assay. Apoptosis were measured by both TUNEL and caspase activity assays, as previously described.

T-lymphocyte cell line = settings: cited from earlier work
motoneurons = settings: in vitro and in vivo; cited from earlier work
[1] = system: Human pulmonary artery cells (HPAEC); assay: HPAEC apoptosis induced by TNF (caspase activity assay); assay type: cell-based; settings: pretreatment 100-200 ng/ml for 2 hours, TNF 10-20 ng/ml
Description: (§1) The inventors investigated the effect of BMPR2 signaling on pulmonary endothelial cell proliferation and survival. Human pulmonary artery […] cells (HPAEC) were grown in EBM-2 medium supplemented with 2% FBS and growth factors (Clonetics). Apoptosis was induced either by serum withdrawal (see FIG. 17) or exposure of cells to TNFα. […] Apoptosis was evaluated by three independent methods: 1) flow cytometry using Annexin V, a Ca2+ dependent phospholipid-binding protein with affinity for phosphatidylserine (PS; translocation of PS from the inner leaflet of plasma membrane to the outer layer occurs during the early stage of apoptosis), 2) TUNEL assay and, 3) caspase activity assay.

[2] = system: Human pulmonary artery epithelial cells (HPAEC); assay: HPAEC apoptosis induced by serum withdrawal (flow cytometry Annexin V, TUNEL); assay type: cell-based; settings: pretreatment 100-200 ng/ml for 2 hours; flow cytometry and TUNEL assay
Description: as §1

Question: Which “cell death of mammary epithelial cells” value (mammary epithelial cells) does the source give for CC(C)(C)OC(=O)N[C@@H](CC(=O)OCc1ccccc1)C(=O)CCl [Boc-D-(benzyl) chloromethylketone] here?
Answer: prevented

Question: What does the source list for Z-VAD?
Answer: inhibition of apoptosis (lung apoptosis after MCT; 48 or 72 hours after the last treatment): less potent; inhibition of apoptosis (lung apoptosis after MCT; 24 hours after the last treatment): most effective

Question: With acetyl-DEVD-aldehyde as the molecule, how does the anti-Fas induced apoptosis (T-lymphocyte cell line) read?
Answer: inhibited

Question: With acetyl-YVAD-aldehyde as the molecule, how does the death of motoneurons (motoneurons) read?
Answer: blocked

Question: For acetyl-YVAD-chloromethylketone, which death of motoneurons (motoneurons) is on record?
Answer: blocked

B1: BMP7: bone morphogenetic protein (protein, UniProt P18075 293-431, looked up)
Bone morphogenetic protein 7: STGSKQRSQNRSKTPKNQEALRMANVAENSSSDQRQACKKHELYVSFRDLGWQDWIIAPEGYAAYYCEGECAFPLNSYMNATNHAIVQTLVHFINPETVPKPCCAPTQLNAISVLYFDDSSNVILKKYRNMVVRACGCH
Question: Which “apoptosis induced by TNF treatment” value [1] does the source give for B1 here?
Answer: protect the cells from apoptosis

Question: What about the “apoptosis induced by serum withdrawal” value [2] of the same molecule?
Answer: protected the cells from apoptosis
